System: MV-4-11 cells
Assay: Gene expression microarray analysis (Affymetrix PrimeView) and GSEA
Assay type: cell-based, human
Design: RFU PODN (11730768_x_at) / Fold change /veh PODN (11730768_x_at) / RFU LINC00158 (11744669_a_at) / Fold change /veh LINC00158 (11744669_a_at) / RFU DUSP10 (11751237_a_at) / Fold change /veh DUSP10 (11751237_a_at) / RFU ID3 (11757404_x_at) / Fold change /veh ID3 (11757404_x_at) / RFU PLEKHG5 (11737974_s_at) / Fold change /veh PLEKHG5 (11737974_s_at) / RFU LRRC4B (11730491_at) / Fold change /veh LRRC4B (11730491_at) / RFU GIMAP4 (11747438_a_at) / Fold change /veh GIMAP4 (11747438_a_at) / RFU KRT8 (11758183_x_at) / Fold change /veh KRT8 (11758183_x_at) / RFU CNN1 (11734310_a_at) / Fold change /veh CNN1 (11734310_a_at) / RFU VPS37D (11726825_at) / Fold change /veh VPS37D (11726825_at) / RFU C10orf10 (11716522_x_at) / Fold change /veh C10orf10 (11716522_x_at) / RFU KIR2DL2 /// KIR2DL4 /// KIR2DL5A /// KIR2DL5B /// KIR2DS1 /// KIR2DS2 /// KIR2DS3 /// KIR2DS4 /// KIR3DL3 /// KIR3DL3 /// KIR3DS1 (11738374_at) / Fold change /veh KIR2DL2 /// KIR2DL4 /// KIR2DL5A /// KIR2DL5B /// KIR2DS1 /// KIR2DS2 /// KIR2DS3 /// KIR2DS4 /// KIR3DL3 /// KIR3DL3 /// KIR3DS1 (11738374_at) / RFU C1QL1 (11718748_at) / Fold change /veh C1QL1 (11718748_at) / RFU TMPRSS4 (11747572_a_at) / Fold change /veh TMPRSS4 (11747572_a_at) / RFU HAMP (11756126_x_at) / Fold change /veh HAMP (11756126_x_at) / RFU RNFT2 (11725882_a_at) / Fold change /veh RNFT2 (11725882_a_at) / RFU NR4A2 (11747474_a_at) / Fold change /veh NR4A2 (11747474_a_at) / RFU ABCC12 (11746883_a_at) / Fold change /veh ABCC12 (11746883_a_at) / RFU TMEM136 (11760407_x_at) / Fold change /veh TMEM136 (11760407_x_at) / RFU CLDN22 /// WWC2 (11732394_at) / Fold change /veh CLDN22 /// WWC2 (11732394_at) / RFU HLA-DPB1 (11760878_x_at) / Fold change /veh HLA-DPB1 (11760878_x_at) / RFU SPINT1 (11716480_a_at) / Fold change /veh SPINT1 (11716480_a_at) / RFU GAP43 (11754022_s_at) / Fold change /veh GAP43 (11754022_s_at) / RFU A4GNT (11735810_at) / Fold change /veh A4GNT (11735810_at) / RFU PRB3 (11715151_x_at) / Fold change /veh PRB3 (11715151_x_at) / RFU TUBB4B (11761932_at) / Fold change /veh TUBB4B (11761932_at) / RFU CAPN14 (11732068_a_at) / Fold change /veh CAPN14 (11732068_a_at) / RFU TMCC2 (11721928_a_at) / Fold change /veh TMCC2 (11721928_a_at) / RFU IRGQ (11745062_a_at) / Fold change /veh IRGQ (11745062_a_at) / RFU FAM174B (11720279_a_at) / Fold change /veh FAM174B (11720279_a_at) / RFU TMPRSS4 (11748680_a_at) / Fold change /veh TMPRSS4 (11748680_a_at) / RFU FAM212B (11763350_a_at) / Fold change /veh FAM212B (11763350_a_at) / RFU PLEKHG5 (11743358_a_at) / Fold change /veh PLEKHG5 (11743358_a_at) / RFU ZSCAN30 (11745921_a_at) / Fold change /veh ZSCAN30 (11745921_a_at) / RFU CMKLR1 (11741424_a_at) / Fold change /veh CMKLR1 (11741424_a_at) / RFU LOC101060620 /// MAPK8IP1 (11723275_at) / Fold change /veh LOC101060620 /// MAPK8IP1 (11723275_at) / RFU SPTSSB (11747773_x_at) / Fold change /veh SPTSSB (11747773_x_at) / RFU PRSS12 (11739890_at) / Fold change /veh PRSS12 (11739890_at) / RFU BIN1 (11741810_x_at) / Fold change /veh BIN1 (11741810_x_at) / RFU WNT11 (11732464_a_at) / Fold change /veh WNT11 (11732464_a_at) / RFU C10orf10 (11716521_a_at) / Fold change /veh C10orf10 (11716521_a_at) / RFU C5orf56 (11738089_at) / Fold change /veh C5orf56 (11738089_at) / RFU CYB561 (11721691_x_at) / Fold change /veh CYB561 (11721691_x_at) / RFU ANKRD19P (11752326_a_at) / Fold change /veh ANKRD19P (11752326_a_at) / RFU OR2T12 /// OR2T33 /// OR2T8 (11738714_s_at) / Fold change /veh OR2T12 /// OR2T33 /// OR2T8 (11738714_s_at) / RFU VCAN (11748164_a_at) / Fold change /veh VCAN (11748164_a_at) / RFU JSRP1 (11732532_at) / Fold change /veh JSRP1 (11732532_at) / RFU KRTAP10-11 (11738290_x_at) / Fold change /veh KRTAP10-11 (11738290_x_at) / RFU MYO3A (11730013_a_at) / Fold change /veh MYO3A (11730013_a_at) / RFU EBF3 (11725865_a_at) / Fold change /veh EBF3 (11725865_a_at) / RFU CAMK2N1 (11719241_x_at) / Fold change /veh CAMK2N1 (11719241_x_at) / RFU C5orf56 (11738088_a_at) / Fold change /veh C5orf56 (11738088_a_at) / RFU OLFML3 (11715873_a_at) / Fold change /veh OLFML3 (11715873_a_at) / RFU LOC100653217 /// NTM (11731650_a_at) / Fold change /veh LOC100653217 /// NTM (11731650_a_at) / RFU MAPK11 (11762145_a_at) / Fold change /veh MAPK11 (11762145_a_at) / RFU FIZ1 (11724087_x_at) / Fold change /veh FIZ1 (11724087_x_at) / RFU OASL (11726364_x_at) / Fold change /veh OASL (11726364_x_at) / RFU SOX15 (11748057_x_at) / Fold change /veh SOX15 (11748057_x_at) / RFU CD79A (11719716_a_at) / Fold change /veh CD79A (11719716_a_at) / RFU HIST1H1D (11736915_at) / Fold change /veh HIST1H1D (11736915_at) / RFU CASKIN2 (11723855_a_at) / Fold change /veh CASKIN2 (11723855_a_at) / RFU LOC730098 (11760151_x_at) / Fold change /veh LOC730098 (11760151_x_at) / RFU OR4N2 (11742367_at) / Fold change /veh OR4N2 (11742367_at) / RFU PRRT2 (11749266_a_at) / Fold change /veh PRRT2 (11749266_a_at) / RFU SNX32 (11753110_a_at) / Fold change /veh SNX32 (11753110_a_at) / RFU CDHR5 (11726645_a_at) / Fold change /veh CDHR5 (11726645_a_at) / RFU RCAN1 (11760418_a_at) / Fold change /veh RCAN1 (11760418_a_at) / RFU FAM167A (11723789_a_at) / Fold change /veh FAM167A (11723789_a_at) / RFU FAM26E (11764081_at) / Fold change /veh FAM26E (11764081_at) / RFU ISYNA1 (11749810_s_at) / Fold change /veh ISYNA1 (11749810_s_at) / RFU ACY1 (11761880_at) / Fold change /veh ACY1 (11761880_at) / RFU 11764098_at / Fold change /veh 11764098_at / RFU SAMD14 (11745864_x_at) / Fold change /veh SAMD14 (11745864_x_at) / RFU NPB (11741838_a_at) / Fold change /veh NPB (11741838_a_at) / RFU TMPRSS6 (11731388_a_at) / Fold change /veh TMPRSS6 (11731388_a_at) / RFU KRTAP10-2 (11738614_at) / Fold change /veh KRTAP10-2 (11738614_at) / RFU ARHGAP8 /// PRR5-ARHGAP8 (11727945_x_at) / Fold change /veh ARHGAP8 /// PRR5-ARHGAP8 (11727945_x_at) / RFU KRTAP5-7 /// NADSYN1 (11734609_at) / Fold change /veh KRTAP5-7 /// NADSYN1 (11734609_at) / RFU RASL12 (11751679_a_at) / Fold change /veh RASL12 (11751679_a_at) / RFU CDKN2B (11736163_a_at) / Fold change /veh CDKN2B (11736163_a_at) / RFU PRF1 (11729649_at) / Fold change /veh PRF1 (11729649_at) / RFU, ZNF638 /// ZNF638-IT1 / Fold change vs veh, ZNF638 /// ZNF638-IT1 / RFU, PANK3 / Fold change vs veh, PANK3 / RFU, SH3YL1 / Fold change vs veh, SH3YL1 / RFU, ZEB2 / Fold change vs veh, ZEB2 / RFU, NRIP1 / Fold change vs veh, NRIP1 / RFU, PTTG1IP / Fold change vs veh, PTTG1IP / RFU, CAPN2 / Fold change vs veh, CAPN2 / RFU, MED14 / Fold change vs veh, MED14 / RFU, SNORA58 / Fold change vs veh, SNORA58 / RFU, C1orf63 / Fold change vs veh, C1orf63 / RFU, LRRFIP1 / Fold change vs veh, LRRFIP1 / RFU, NDUFAF7 / Fold change vs veh, NDUFAF7 / RFU, SLC12A2 / Fold change vs veh, SLC12A2 / RFU, IBTK / Fold change vs veh, IBTK / RFU, ESF1 / Fold change vs veh, ESF1 / Fold change vs veh, TMEM50B / RFU, TAOK1 / Fold change vs veh, TAOK1 / RFU, ACBD3 / Fold change vs veh, ACBD3 / RFU, TMA16 / Fold change vs veh, TMA16 / RFU, RWDD3 / Fold change vs veh, RWDD3 / RFU, BCAT1 / Fold change vs veh, BCAT1 / RFU, EDEM3 / Fold change vs veh, EDEM3 / RFU, TMEM33 / Fold change vs veh, TMEM33 / RFU, WDR75 / Fold change vs veh, WDR75 / RFU, AHCTF1 / Fold change vs veh, AHCTF1 / RFU, TFRC / Fold change vs veh, TFRC / RFU, ZDHHC17 / Fold change vs veh, ZDHHC17 / RFU, NOM1 / Fold change vs veh, NOM1 / RFU, ARL8B / Fold change vs veh, ARL8B / RFU, ZBTB11 / Fold change vs veh, ZBTB11 / RFU, TAMM41 / Fold change vs veh, TAMM41 / RFU, KIAA1704 /// LOC100996395 / Fold change vs veh, KIAA1704 /// LOC100996395 / RFU, ING1 / Fold change vs veh, ING1 / RFU, TRMT61B / Fold change vs veh, TRMT61B / RFU, FUBP3 / Fold change vs veh, FUBP3 / RFU, TP53 / Fold change vs veh, TP53 / RFU, TNKS2 / Fold change vs veh, TNKS2 / RFU, ZFP14 / Fold change vs veh, ZFP14 / RFU, ACTR2 / Fold change vs veh, ACTR2 / RFU, PPP3R1 / Fold change vs veh, PPP3R1 / RFU, PIK3R1 / Fold change vs veh, PIK3R1 / RFU, HNRNPA1 / Fold change vs veh, HNRNPA1 / RFU, RNF170 / Fold change vs veh, RNF170 / RFU, ZNF28 / Fold change vs veh, ZNF28 / RFU, RNGTT / Fold change vs veh, RNGTT / RFU, OGT / Fold change vs veh, OGT / RFU, BRD1 / Fold change vs veh, BRD1 / RFU, MARS / Fold change vs veh, MARS / RFU, ZNF655 / Fold change vs veh, ZNF655 / RFU, FAHD1 / Fold change vs veh, FAHD1 / RFU, BDP1 / Fold change vs veh, BDP1 / RFU, LRRCC1 / Fold change vs veh, LRRCC1 / RFU, ARID1A / Fold change vs veh, ARID1A / RFU, ZNF146 / Fold change vs veh, ZNF146 / RFU, ZNF330 / Fold change vs veh, ZNF330 / RFU, GPN3 / Fold change vs veh, GPN3 / RFU, C9orf123 / Fold change vs veh, C9orf123 / RFU, N4BP2L2 / Fold change vs veh, N4BP2L2 / RFU, ARFIP1 / Fold change vs veh, ARFIP1 / RFU, FAM179B / Fold change vs veh, FAM179B / RFU, BCL10 / Fold change vs veh, BCL10 / RFU, UHRF1BP1L / Fold change vs veh, UHRF1BP1L / RFU, BET1 / Fold change vs veh, BET1 / RFU, CNOT2 / Fold change vs veh, CNOT2 / RFU, ZNF268 / Fold change vs veh, ZNF268 / Fold change vs veh, ZNF507 / RFU, DGCR2 / Fold change vs veh, DGCR2 / RFU, WDSUB1 / Fold change vs veh, WDSUB1 / Fold change vs veh, HSP90B1 /// MIR3652 / RFU, ADSS / Fold change vs veh, ADSS / RFU, GK / Fold change vs veh, GK / RFU, ZNF148 / Fold change vs veh, ZNF148 / RFU, TAF9 / Fold change vs veh, TAF9 / RFU, SLC1A5 / Fold change vs veh, SLC1A5 / RFU, SLMO2 / Fold change vs veh, SLMO2 / RFU, ABCC4 / Fold change vs veh, ABCC4 / RFU, LOC101060439 /// RAP1B / Fold change vs veh, LOC101060439 /// RAP1B / RFU, RFX7 / Fold change vs veh, RFX7 / RFU, GTPBP10 / Fold change vs veh, GTPBP10 / RFU, CNEP1R1 / Fold change vs veh, CNEP1R1 / RFU, BIVM-ERCC5 /// ERCC5 / Fold change vs veh, BIVM-ERCC5 /// ERCC5 / RFU, ILF3 / Fold change vs veh, ILF3 / RFU 11762660_at / Fold change /veh 11762660_at / RFU VCAN (11757783_s_at) / Fold change /veh VCAN (11757783_s_at) / RFU DDX43 (11728927_at) / Fold change /veh DDX43 (11728927_at) / RFU KRT8 (11758188_x_at) / Fold change /veh KRT8 (11758188_x_at) / RFU NKD1 (11759106_at) / Fold change /veh NKD1 (11759106_at) / RFU SRD5A1 (11742802_a_at) / Fold change /veh SRD5A1 (11742802_a_at) / RFU TPSAB1 /// TPSB2 (11721975_s_at) / Fold change /veh TPSAB1 /// TPSB2 (11721975_s_at) / RFU GSTM3 (11746129_a_at) / Fold change /veh GSTM3 (11746129_a_at) / RFU IL23R (11737362_x_at) / Fold change /veh IL23R (11737362_x_at) / RFU TMEM51 (11727254_a_at) / Fold change /veh TMEM51 (11727254_a_at) / RFU PIWIL2 (11732686_x_at) / Fold change /veh PIWIL2 (11732686_x_at) / RFU ORM1 (11744905_x_at) / Fold change /veh ORM1 (11744905_x_at) / RFU CCDC152 (11743942_at) / Fold change /veh CCDC152 (11743942_at) / RFU ECM1 (11717891_a_at) / Fold change /veh ECM1 (11717891_a_at) / RFU IL23R (11748794_a_at) / Fold change /veh IL23R (11748794_a_at) / RFU TNFAIP8L3 (11732012_x_at) / Fold change /veh TNFAIP8L3 (11732012_x_at) / RFU MBOAT4 (11741988_at) / Fold change /veh MBOAT4 (11741988_at) / RFU 11764193_at / Fold change /veh 11764193_at / RFU TMEM53 (11763286_at) / Fold change /veh TMEM53 (11763286_at) / RFU MAGEB2 (11727129_at) / Fold change /veh MAGEB2 (11727129_at) / RFU TMEM200A (11744735_a_at) / Fold change /veh TMEM200A (11744735_a_at) / RFU CCDC152 (11751479_a_at) / Fold change /veh CCDC152 (11751479_a_at) / RFU FAM211A (11726209_a_at) / Fold change /veh FAM211A (11726209_a_at) / RFU RGS16 (11746705_a_at) / Fold change /veh RGS16 (11746705_a_at) / RFU VCAN (11755009_s_at) / Fold change /veh VCAN (11755009_s_at) / RFU RHOB (11743442_s_at) / Fold change /veh RHOB (11743442_s_at) / RFU RGS16 (11720943_a_at) / Fold change /veh RGS16 (11720943_a_at) / RFU RGS16 (11720944_at) / Fold change /veh RGS16 (11720944_at) / RFU, VPS4B / Fold change vs veh, VPS4B / RFU, CREB1 / Fold change vs veh, CREB1 / RFU, DNAJC13 / Fold change vs veh, DNAJC13 / RFU, GNAQ / Fold change vs veh, GNAQ / RFU, CDK5R1 / Fold change vs veh, CDK5R1 / RFU, ZRANB3 / Fold change vs veh, ZRANB3 / RFU, CUL4A / Fold change vs veh, CUL4A / RFU, CCNY / Fold change vs veh, CCNY / RFU, UFL1 / Fold change vs veh, UFL1 / RFU, COG3 / Fold change vs veh, COG3 / RFU, DIAPH2 / Fold change vs veh, DIAPH2 / RFU, SKA2 / Fold change vs veh, SKA2 / RFU, AFF3 / Fold change vs veh, AFF3 / RFU, LMF1 / Fold change vs veh, LMF1 / RFU, IPO11 / Fold change vs veh, IPO11 / RFU, DFFB / Fold change vs veh, DFFB / RFU, FOXP1 / Fold change vs veh, FOXP1 / RFU, CARD8 / Fold change vs veh, CARD8 / RFU, STRN3 / Fold change vs veh, STRN3 / RFU, ADK / Fold change vs veh, ADK / RFU, RASSF2 / Fold change vs veh, RASSF2 / RFU, WIPF1 / Fold change vs veh, WIPF1 / RFU, LARP1B / Fold change vs veh, LARP1B / RFU, RASA1 / Fold change vs veh, RASA1 / RFU, RB1 / Fold change vs veh, RB1 / RFU, PPFIA1 / Fold change vs veh, PPFIA1 / RFU, MAT2A / Fold change vs veh, MAT2A / RFU, CCT5 / Fold change vs veh, CCT5 / RFU, WDR92 / Fold change vs veh, WDR92 / RFU, CUX1 / Fold change vs veh, CUX1 / RFU, TTC7A / Fold change vs veh, TTC7A / RFU, TMEM135 / Fold change vs veh, TMEM135 / RFU, DEPTOR / Fold change vs veh, DEPTOR / RFU, CPM / Fold change vs veh, CPM / RFU, DNAJB6 / Fold change vs veh, DNAJB6 / RFU, CACNA2D3 / Fold change vs veh, CACNA2D3 / RFU, DTX4 / Fold change vs veh, DTX4 / RFU, TFCP2 / Fold change vs veh, TFCP2 / RFU, GMCL1 /// GMCL1P1 / Fold change vs veh, GMCL1 /// GMCL1P1 / RFU, AEBP2 / Fold change vs veh, AEBP2 / RFU, SNHG1 /// SNORD22 /// SNORD25 /// SNORD26 /// SNORD27 /// SNORD28 /// SNORD29 /// SNORD31 / Fold change vs veh, SNHG1 /// SNORD22 /// SNORD25 /// SNORD26 /// SNORD27 /// SNORD28 /// SNORD29 /// SNORD31 / Fold change (Aza/veh), C12orf56 (ProbeSet 11735607_a_at) / Fold change (ACY-1035/veh), C12orf56 (ProbeSet 11735607_a_at) / Fold change (Aza/veh), FGFR1OP (ProbeSet 11751329_s_at) / Fold change (ACY-1035/veh), FGFR1OP (ProbeSet 11751329_s_at) / Fold change (Aza/veh), VPS36 (ProbeSet 11739960_a_at) / Fold change (ACY-1035/veh), VPS36 (ProbeSet 11739960_a_at) / RFU SYPL1 (11715823_x_at) / Fold change /veh SYPL1 (11715823_x_at) / RFU IGFBP7 (11715501_s_at) / Fold change /veh IGFBP7 (11715501_s_at) / RFU REEP3 (11722064_at) / Fold change /veh REEP3 (11722064_at) / RFU IGLL1 (11728026_x_at) / Fold change /veh IGLL1 (11728026_x_at): dose or concentration left out as unconfirmed
Conditions: MV-4-11 cells, 48 hours

Structure (SMILES): Nc1ncn([C@@H]2O[C@H](CO)[C@@H](O)[C@H]2O)c(=O)n1 [azacitidine]
- RFU VCAN (11755009_s_at): 15.18 RFU

Reference: paper PMC5218480 (PLoS ONE, 2017)
